Results reported in US12703706B2, “Anthelmintic compounds comprising a thienopyridine structure” (Intervet Inc., priority 2020, dated 2026).
pEC50: −log10 of the molar value.

target: human Maxi K channel (BK channel), KCNMA1 (KCa1.1) and beta1 (KCNMB1) subunits (Homo sapiens, UniProt Q12791)
Sequence (Q12791 1-1178 isoform Q12791-5): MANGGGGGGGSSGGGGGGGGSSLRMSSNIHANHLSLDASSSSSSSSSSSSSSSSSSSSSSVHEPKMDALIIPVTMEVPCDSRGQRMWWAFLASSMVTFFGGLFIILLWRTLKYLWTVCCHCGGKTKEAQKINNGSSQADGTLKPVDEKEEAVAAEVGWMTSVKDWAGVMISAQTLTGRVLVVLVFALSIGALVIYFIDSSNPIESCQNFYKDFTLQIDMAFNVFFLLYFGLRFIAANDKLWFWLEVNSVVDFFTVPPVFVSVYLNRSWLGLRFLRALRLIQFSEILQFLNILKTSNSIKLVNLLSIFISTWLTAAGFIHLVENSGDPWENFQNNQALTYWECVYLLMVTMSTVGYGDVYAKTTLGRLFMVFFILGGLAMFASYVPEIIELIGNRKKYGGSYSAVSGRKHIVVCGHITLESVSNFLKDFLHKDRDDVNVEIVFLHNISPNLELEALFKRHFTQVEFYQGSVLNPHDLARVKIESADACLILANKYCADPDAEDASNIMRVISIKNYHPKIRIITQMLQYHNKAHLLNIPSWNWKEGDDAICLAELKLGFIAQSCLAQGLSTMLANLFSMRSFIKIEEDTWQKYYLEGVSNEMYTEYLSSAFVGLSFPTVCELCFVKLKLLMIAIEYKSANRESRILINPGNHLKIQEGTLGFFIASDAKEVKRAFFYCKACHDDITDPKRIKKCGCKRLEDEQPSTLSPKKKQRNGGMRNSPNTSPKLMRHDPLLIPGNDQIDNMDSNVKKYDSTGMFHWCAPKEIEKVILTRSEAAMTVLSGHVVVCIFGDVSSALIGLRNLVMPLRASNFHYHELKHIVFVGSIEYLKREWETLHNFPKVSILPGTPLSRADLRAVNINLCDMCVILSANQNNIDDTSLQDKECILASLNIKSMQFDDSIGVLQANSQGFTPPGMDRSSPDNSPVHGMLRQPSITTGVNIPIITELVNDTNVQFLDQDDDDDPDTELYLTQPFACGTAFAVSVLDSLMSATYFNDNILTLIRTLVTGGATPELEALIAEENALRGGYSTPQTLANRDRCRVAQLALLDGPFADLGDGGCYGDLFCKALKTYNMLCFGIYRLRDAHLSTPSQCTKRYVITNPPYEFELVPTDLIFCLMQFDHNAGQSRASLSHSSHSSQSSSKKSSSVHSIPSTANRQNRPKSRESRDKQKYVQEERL
Sequence (Q16558 whole entry partner): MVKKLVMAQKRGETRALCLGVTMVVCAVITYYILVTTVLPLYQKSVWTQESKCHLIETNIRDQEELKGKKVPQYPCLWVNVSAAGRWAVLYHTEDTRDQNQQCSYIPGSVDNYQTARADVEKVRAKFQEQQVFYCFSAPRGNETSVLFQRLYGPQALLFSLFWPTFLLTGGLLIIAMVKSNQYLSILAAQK
Method: In Vitro Assay: Agonistic Activity at the Human Maxi K Channel (BK Channel)
A CHO K1 cell line was stably transfected with the KCNMA1 (KCa1.1, U11058) and betal (KCNMB1) subunits of the human Maxi K channel (Ponte et al, Molecular Pharmacology 2012, 81(4), 567-577).
Cells were seeded in microtiter plates (black 384-well MTP, clear bottom) in a concentration of 20,000 cells/well in 25 μl medium and cultured for 20 to 24 hours at 37° C. and 5% CO2. After incubation, 25 μl of FMP-dye Blue-Tyrode's was added to each well and incubated at room temperature for 30 min. Ten minutes after addition of 12.5 μl compound solution, the plates are transferred to the FLIPR for measurement.
For the membrane potential measurements, plates were placed in the FLIPR Penta (Molecular Devices). The baseline measurement of the fluorescence was stared for 20 sec (Exc. 510-545 nm, Emm. 565-625 nm). Potential channel opening measurement was started by addition of 25 μl KCl-Tyrode (final assay concentration of the KCl-Tyrode: 70 mM KCl, 2 mM CaCl2, 1 mM MgCl2, 0.8 mM NaH2PO4, 5 mM Glucose, 28 mM Hepes, pH 7.4, including the voltage sensitive dye). The complete measurement takes 150 s.
EC50 values were determined in triplicate utilizing compound dilution series. The data were determined at least in two independent tests. The data were proceeded by using the ActivityBase XE Runner software (IDBS) for curve fitting and calculation of the half-maximal effective concentration.

Structure (SMILES)	pEC50
COc1cccc(-c2csc3c(N4CCOCC4)c(C(=O)N[C@H]4CCOc5ccccc54)cnc23)c1 [Compound 43]	< 4.52
CN(C)c1c(C(=O)N[C@H]2CCOc3ccccc32)cnc2c(-c3cccc(OC(F)(F)F)c3)csc12 [Compound 97]	< 4.52
O=C(N[C@H]1CCOc2ccccc21)c1cnc2c(-c3cc(F)cc(F)c3)csc2c1NC1CC1 [Compound 86]	< 4.52
CN(C)c1c(C(=O)NC2COc3ccccc32)cnc2c(-c3cc(Cl)cc(Cl)c3)csc12 (stereo not shown) [Compound 96]	< 4.52
O=C(NC1COc2ccccc21)c1cnc2c(-c3cc(Cl)cc(Cl)c3)csc2c1N1CCOCC1 (stereo not shown) [Compound 81]	< 4.52
Cc1sc2c(N3CCOCC3)c(C(=O)N[C@H]3CCc4ccccc43)cnc2c1-c1cc(F)cc(F)c1F [Compound 110]	< 4.52
O=C(N[C@H]1CCOc2ccccc21)c1cnc2c(-c3cc(F)cc(F)c3F)csc2c1N1CCC1 [Compound 84]	< 4.52
Cc1sc2c(N(C)C)c(C(=O)Nc3cccc4ccccc34)cnc2c1-c1cccc(Cl)c1Cl [Compound 37]	< 4.52
O=C(N[C@H]1CCOc2ccccc21)c1cnc2c(-c3cc(Cl)cc(Cl)c3)csc2c1N1CC(F)C1 [Compound 101]	< 4.52
CN(C)c1c(C(=O)NC2COc3ccccc32)cnc2c(-c3cccc(Cl)c3Cl)csc12 (stereo not shown) [Compound 78]	< 4.52
Cc1sc2c(N3CC(F)(F)C3)c(C(=O)N[C@H]3CCc4ccccc43)cnc2c1-c1cccc(Cl)c1Cl [Compound 57]	< 4.52
Cc1sc2c(N3CC(F)C3)c(C(=O)N[C@H]3CCc4ccccc43)cnc2c1-c1cccc(Cl)c1Cl [Compound 63]	< 4.52
Cc1sc2c(N3CC(F)(F)C3)c(C(=O)N[C@H]3CCOc4ccccc43)cnc2c1-c1cc(Cl)cc(Cl)c1 [Compound 59]	< 4.52
O=C(N[C@H]1CCOc2ccccc21)c1cnc2c(-c3cc(F)cc(F)c3F)csc2c1N1CCOCC1 [Compound 15]	< 4.52
Cc1sc2c(N3CCOCC3)c(C(=O)N[C@H]3CCc4ccccc43)cnc2c1-c1cc(Cl)cc(Cl)c1 [Compound 69]	< 4.52
COc1cccc(-c2csc3c(N(C)C)c(C(=O)N[C@H]4CCOc5ccccc54)cnc23)c1 [Compound 48]	< 4.52
O=C(N[C@H]1CCc2ccccc21)c1cnc2c(-c3cccc(Cl)c3Cl)csc2c1N1CCOCC1 [Compound 6]	5.00 to 5.30
Cc1sc2c(N(C)C)c(C(=O)N[C@H]3CCCc4ccccc43)cnc2c1-c1cccc(Cl)c1Cl [Compound 35]	< 4.52
CN(C)c1c(C(=O)Nc2cccc3ccccc23)cnc2c(-c3cccc(Cl)c3Cl)csc12 [Compound 22]	< 4.52
Cc1sc2c(N(C)C)c(C(=O)Nc3cccc4ccccc34)cnc2c1-c1cc(Cl)cc(Cl)c1 [Compound 54]	< 4.52
Cc1sc2c(N3CC(F)C3)c(C(=O)N[C@H]3CCCc4ccccc43)cnc2c1-c1cccc(Cl)c1Cl [Compound 61]	< 4.52
CN1CCN(c2c(C(=O)NC3CCOc4ccccc43)cnc3c(-c4cccc(Cl)c4Cl)csc23)CC1 (stereo not shown) [Compound 20]	< 4.52
O=C(N[C@H]1CCOc2ccccc21)c1cnc2c(-c3cc(F)cc(F)c3F)csc2c1N1CC(F)(F)C1 [Compound 40]	< 4.52
CN(CCO)c1c(C(=O)N[C@H]2CCOc3ccccc32)cnc2c(-c3cc(F)cc(F)c3F)csc12 [Compound 95]	< 4.52
Cc1sc2c(N(C)C)c(C(=O)N[C@H]3CCOc4ccccc43)cnc2c1-c1cc(F)cc(F)c1 [Compound 103]	< 4.52
O=C(N[C@H]1CCc2ccccc21)c1cnc2c(-c3cccc(Cl)c3Cl)csc2c1N1CC(F)(F)C1 [Compound 39]	< 4.52

Structure (SMILES)	pEC50
O=C(N[C@H]1CCOc2ccccc21)c1cnc2c(-c3cccc(Cl)c3Cl)csc2c1N1CC(F)(F)C1 [Compound 26]	< 4.52
Cc1sc2c(N3CCOCC3)c(C(=O)N[C@H]3CCc4ccccc43)cnc2c1-c1cccc(C(F)(F)F)c1 [Compound 112]	< 4.52
CN(C)c1c(C(=O)N[C@H]2CCc3ccccc32)cnc2c(-c3cc(F)cc(F)c3F)csc12 [Compound 25]	< 4.52
O=C(N[C@H]1CCOc2ccccc21)c1cnc2c(-c3cccc(C(F)(F)F)c3)csc2c1N1CC(F)C1 [Compound 93]	< 4.52
CN(C)c1c(C(=O)N[C@H]2CCOc3ccccc32)cnc2c(-c3cccc(C(F)(F)F)c3)csc12 [Compound 47]	< 4.52
CN(C)c1c(C(=O)N[C@H]2CCCc3ccccc32)cnc2c(-c3cc(Cl)cc(Cl)c3)csc12 [Compound 31]	< 4.52
CN(C)c1c(C(=O)N[C@H]2CCc3ccccc32)cnc2c(-c3cc(Cl)cc(Cl)c3)csc12 [Compound 9]	< 4.52
O=C(N[C@H]1CCOc2ccccc21)c1cnc2c(-c3cccc(F)c3F)csc2c1N1CCC1 [Compound 85]	< 4.52
Cc1sc2c(N3CC(F)C3)c(C(=O)N[C@H]3CCc4ccccc43)cnc2c1-c1cc(Cl)cc(Cl)c1 [Compound 66]	< 4.52
Cc1sc2c(N3CC(F)(F)C3)c(C(=O)N[C@H]3CCCc4ccccc43)cnc2c1-c1cc(Cl)cc(Cl)c1 [Compound 58]	< 4.52
Cc1sc2c(N3CC(F)(F)C3)c(C(=O)N[C@H]3CCc4ccccc43)cnc2c1-c1cc(Cl)cc(Cl)c1 [Compound 60]	< 4.52
CN1CCN(c2c(C(=O)N[C@H]3CCc4ccccc43)cnc3c(-c4cc(Cl)cc(Cl)c4)csc23)CC1 [Compound 29]	< 4.52
O=C(N[C@H]1CCc2ccccc21)c1cnc2c(-c3cc(F)cc(F)c3F)csc2c1N1CC(F)(F)C1 [Compound 41]	< 4.52
CN(C)c1cccc(-c2csc3c(N(C)C)c(C(=O)N[C@H]4CCOc5ccccc54)cnc23)c1 [Compound 98]	< 4.52
CN1CCN(c2c(C(=O)N[C@H]3CCCc4ccccc43)cnc3c(-c4cc(Cl)cc(Cl)c4)csc23)CC1 [Compound 18]	< 4.52
CN(C)c1c(C(=O)N[C@H]2CCCc3ccccc32)cnc2c(-c3cccc(Cl)c3Cl)csc12 [Compound 21]	< 4.52
Cc1sc2c(N3CC(F)C3)c(C(=O)N[C@H]3CCCc4ccccc43)cnc2c1-c1cc(Cl)cc(Cl)c1 [Compound 64]	< 4.52
Cc1sc2c(N3CCOCC3)c(C(=O)N[C@H]3CCOc4ccccc43)cnc2c1-c1cccc(C(F)(F)F)c1 [Compound 108]	< 4.52
O=C(N[C@H]1CCOc2ccccc21)c1cnc2c(-c3cc(F)cc(F)c3)csc2c1N1CCC1 [Compound 83]	< 4.52
Cc1sc2c(N3CCOCC3)c(C(=O)N[C@H]3CCc4ccccc43)cnc2c1-c1cc(F)cc(F)c1 [Compound 111]	< 4.52
Cc1sc2c(N3CCOCC3)c(C(=O)N[C@H]3CCc4ccccc43)cnc2c1-c1cccc(Cl)c1Cl [Compound 73]	< 4.52
Cc1sc2c(N(C)C)c(C(=O)N[C@H]3CCc4ccccc43)cnc2c1-c1cc(Cl)cc(Cl)c1 [Compound 33]	< 4.52
O=C(N[C@H]1CCOc2ccccc21)c1cnc2c(-c3cc(Cl)cc(Cl)c3)csc2c1N1CCOCC1 [Compound 1]	< 4.52
Cc1sc2c(N3CC(F)(F)C3)c(C(=O)N[C@H]3CCCc4ccccc43)cnc2c1-c1cccc(Cl)c1Cl [Compound 55]	< 4.52
CN(C)c1c(C(=O)N[C@H]2CCOc3ccccc32)cnc2c(-c3cc(F)cc(F)c3)csc12 [Compound 51]	< 4.52
Cc1cccc(-c2csc3c(N4CCOCC4)c(C(=O)N[C@H]4CCOc5ccccc54)cnc23)c1C [Compound 44]	< 4.52
